Measured values reported in ChEMBL document CHEMBL3997813, “Selective inhibition of monoamine oxidase A by purpurin, an anthraquinone” (Bioorg Med Chem Lett, 2017).

What was measured:
[1] = biological target: T1, Amine oxidase [flavin-containing] B (Homo sapiens, UniProt P27338); assay: Inhibition of recombinant human MAO-B using benzylamine as substrate preincubated for 15 mins
T1 sequence (P27338 whole entry): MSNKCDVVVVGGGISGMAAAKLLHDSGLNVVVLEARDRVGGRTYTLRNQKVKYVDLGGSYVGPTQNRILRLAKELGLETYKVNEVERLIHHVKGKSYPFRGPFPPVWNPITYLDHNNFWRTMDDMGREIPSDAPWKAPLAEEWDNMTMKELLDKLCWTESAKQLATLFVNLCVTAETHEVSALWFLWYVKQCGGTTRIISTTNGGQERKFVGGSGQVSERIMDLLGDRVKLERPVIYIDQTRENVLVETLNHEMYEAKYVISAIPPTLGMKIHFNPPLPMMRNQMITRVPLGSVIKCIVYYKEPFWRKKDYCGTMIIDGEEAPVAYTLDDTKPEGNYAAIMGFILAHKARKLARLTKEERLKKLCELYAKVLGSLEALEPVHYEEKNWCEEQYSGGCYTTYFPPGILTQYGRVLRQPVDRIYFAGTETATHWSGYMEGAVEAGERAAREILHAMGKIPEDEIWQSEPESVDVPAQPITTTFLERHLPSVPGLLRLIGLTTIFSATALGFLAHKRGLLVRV

[2] = biological target: T2, Amine oxidase [flavin-containing] A (Homo sapiens, UniProt P21397); assay: Competitive inhibition of recombinant human MAO-A using 0.01 to 0.5 mM kynuramine substrate by Lineweaver-Burk plot analysis
T2 sequence (P21397 whole entry): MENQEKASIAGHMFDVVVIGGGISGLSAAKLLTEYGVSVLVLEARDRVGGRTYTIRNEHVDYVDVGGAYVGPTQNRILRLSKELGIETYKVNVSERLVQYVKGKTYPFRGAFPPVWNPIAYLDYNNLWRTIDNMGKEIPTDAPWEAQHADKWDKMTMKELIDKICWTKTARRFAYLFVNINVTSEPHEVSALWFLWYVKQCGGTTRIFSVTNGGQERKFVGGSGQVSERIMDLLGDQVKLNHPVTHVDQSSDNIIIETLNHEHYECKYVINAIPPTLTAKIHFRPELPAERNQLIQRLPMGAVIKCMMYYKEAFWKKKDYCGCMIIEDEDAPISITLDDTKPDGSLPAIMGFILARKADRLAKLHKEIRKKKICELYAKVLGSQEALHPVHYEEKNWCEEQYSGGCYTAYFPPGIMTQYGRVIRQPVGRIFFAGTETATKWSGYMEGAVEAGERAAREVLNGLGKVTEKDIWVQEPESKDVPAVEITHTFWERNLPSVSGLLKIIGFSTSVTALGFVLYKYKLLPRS

[3] = biological target: T2, Amine oxidase [flavin-containing] A; assay: Inhibition of recombinant human MAO-A assessed as residual activity at 5 uM using 0.4 mM of kynuramine as substrate after 10 mins; details: read-out: Activity
[4] = biological target: T2, Amine oxidase [flavin-containing] A; assay: Reversible inhibition of recombinant human MAO-A using kynuramine as substrate assessed as residual activity at 100 times IC50 preincubated for 10 mins followed by 100 times compound dilution
[5] = biological target: T2, Amine oxidase [flavin-containing] A; assay: Time-dependent inhibition of recombinant human MAO-A preincubated up to 30 mins followed by addition of 0.2 mM of kynuramine as substrate
[6] = biological target: T2, Amine oxidase [flavin-containing] A; assay: Reversible inhibition of recombinant human MAO-A assessed as residual activity at 5 uM preincubated for 10 mins in presence of kynuramine substrate followed by re-addition of 0.2 mM of substrate measured after 10 mins; details: read-out: Activity
[7] = biological target: T2, Amine oxidase [flavin-containing] A; assay: Inhibition of recombinant human MAO-A assessed as residual activity at 5 uM using 0.2 mM kynuramine as substrate incubated for 10 mins; details: read-out: Activity
[8] = biological target: T1, Amine oxidase [flavin-containing] B; assay: Inhibition of recombinant human MAO-B using benzylamine as substrate at 40 uM after 15 mins relative to control; details: 0.25 h
[9] = biological target: T2, Amine oxidase [flavin-containing] A; assay: Inhibition of recombinant human MAO-A using kynuramine as substrate incubated for 10 mins
[10] = biological target: T2, Amine oxidase [flavin-containing] A; assay: Competitive inhibition of recombinant human MAO-A using varying levels of kynuramine substrate after 5 mins by Lineweaver-Burk plot analysis
[11] = biological target: T2, Amine oxidase [flavin-containing] A; assay: Irreversible inhibition of recombinant human MAO-A using kynuramine as substrate assessed as residual activity at 100 times IC50 preincubated for 10 mins followed by 100 times compound dilution
[12] = biological target: T2, Amine oxidase [flavin-containing] A; assay: Inhibition of recombinant human liver MAO-A expressed in yeast using kynuramine as substrate preincubated for 3 mins followed by substrate addition by double reciprocal plot analysis

**Q.** With `O=C1c2ccccc2C(=O)c2c(O)c(O)cc(O)c21` [PURPURIN] as the compound, how does the IC50 [1] read?
**A.** > 40000 nM

**Q.** What about the Ki [2] of the same compound?
**A.** 422 nM

**Q.** And the activity at 5 µM [3]?
**A.** 54.4%

**Q.** And the Activity [4]?
**A.** 63.9 to 67.2%

**Q.** And the TDI [5]?
**A.** Active

**Q.** What about the activity at 5 µM [6] of the same compound?
**A.** 55.2%

**Q.** What about the activity at 5 µM [7] of the same compound?
**A.** 36.6%

**Q.** What about the inhibition at 40 µM [8] of the same compound?
**A.** 23.3%

**Q.** What about the IC50 [9] of the same compound?
**A.** 2500 nM

**Q.** For `CNc1ccccc1-c1nc(C(=O)OC)cs1`, which Ki [10] is on record?
**A.** 1840 nM

**Q.** For `C#CCN(C)CCCOc1ccc(Cl)cc1Cl` [CLORGILINE], which Activity [11] is on record?
**A.** 24.9 to 47.9%

**Q.** For `Cn1ccc2c3ccccc3nc-2c1`, which Ki [12] is on record?
**A.** 1430 nM

**Q.** Which results are given for `O=C1c2ccccc2C(=O)c2c1ccc(O)c2O` [ATHRAQUINONES A]?
**A.** IC50 [1]: > 60000 nM; IC50 [9]: 30100 nM
